From patent US12655116B2, “Substituted isophthalic acid diamides” (Bayer Aktiengesellschaft, priority 2020, dated 2026)

Columns and labels:
ECHCG [1] = experiment: Pre-emergence herbicidal action against ECHCG; format: in vivo, Echinochloa crus-galli
How it was run: (§1)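 Seeds sown in sandy loam, soil-covered; compound sprayed on soil surface pre-emergence. Application: WP/EC, 600–800 l/ha, 0.2% wetting agent. Readout: visual % damage at 3 weeks.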

PHBPU [2] = experiment: Pre-emergence herbicidal action against PHBPU; format: in vivo, Pharbitis purpurea
How it was run: as §1

ALOMY [3] = experiment: Pre-emergence herbicidal action against ALOMY; format: in vivo, Alopecurus myosuroides; details: 80 g/ha, pre-emergence, scored visually after 3 weeks vs untreated controls (100% = plants have died, 0% = like control plants)
How it was run: as §1

AMARE [4] = experiment: Pre-emergence herbicidal action against AMARE; format: in vivo, Amaranthus retroflexus
How it was run: as §1

ALOMY [5] = experiment: Post-emergence herbicidal action against ALOMY; format: in vivo, Alopecurus myosuroides; details: dosage 20 g/ha, visual assessment about 3 weeks after treatment vs untreated controls
How it was run: (§2)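 Percent herbicidal action is rated by eye about 3 weeks after treatment against untreated controls, where 100% means dead plants and 0% means like controls. Plants in sandy loam are sprayed on green parts at the one-leaf stage with aqueous WP or EC preparations at 600 to 800 l/ha plus 0.2% wetting agent.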

VIOTR [6] = experiment: Pre-emergence herbicidal action against VIOTR; format: in vivo, Viola tricolor
How it was run: as §1

SETVI [7] = experiment: Pre-emergence herbicidal action against SETVI; format: in vivo, Setaria viridis
How it was run: as §1

DIGSA = experiment: Pre-emergence herbicidal action against DIGSA; format: in vivo, Digitaria sanguinalis
How it was run: as §1

AVEFA [8] = experiment: Pre-emergence herbicidal action against AVEFA; format: in vivo, Avena fatua; details: 80 g/ha, pre-emergence
How it was run: as §1

PHBPU [9] = experiment: Post-emergence herbicidal action against PHBPU; format: in vivo, Pharbitis purpurea
How it was run: as §2

MATIN [10] = experiment: Pre-emergence herbicidal action against MATIN; format: in vivo, Matricaria inodora
How it was run: as §1

AVEFA [11] = experiment: Post-emergence herbicidal action against AVEFA; format: in vivo, Avena fatua; details: 20 g/ha, visual assessment about 3 weeks after treatment, 100% = plants have died, 0% = like control plants
Experimental: Seeds of monocotyledonous and dicotyledonous weed and crop plants are laid out in sandy loam soil in wood-fiber pots, covered with soil and cultivated in a greenhouse under good growth conditions. 2 to 3 weeks after sowing, the test plants are treated at the one-leaf stage. The compounds of the invention, formulated in the form of wettable powders (WP) or as emulsion concentrates (EC), are then sprayed onto the green parts of the plants in the form of an aqueous suspension or emulsion at a water application rate equivalent to 600 to 800 l/ha, with addition of 0.2% wetting agent. After the test plants have been left to stand in the greenhouse under optimal growth conditions for about 3 weeks, the action of the preparations is assessed visually in comparison to untreated controls (herbicidal action in percent (%): 100% activity=the plants have died, 0% activity=like control plants). […] The tables below illustrate, in an illustrative manner, the post-emergence herbicidal action of the compounds of the invention, the herbicidal activity being stated in percent.

ECHCG [12] = experiment: Post-emergence herbicidal action against ECHCG; format: in vivo, Echinochloa crus-galli
How it was run: as §2

ABUTH [13] = experiment: Post-emergence herbicidal action against ABUTH; format: in vivo, Abutilon theophrasti; details: visual assessment about 3 weeks after treatment vs untreated controls
How it was run: as §2

ABUTH [14] = experiment: Pre-emergence herbicidal action against ABUTH; format: in vivo, Abutilon theophrasti; details: for Pre-emergence action against ABUTH (herbicidal activity): 80 g/ha, scored visually after 3 weeks vs untreated controls (100% = plants have died, 0% = like control plants); for Pre-emergence action against ABUTH (herbicidal activity in percent): dosage 20 g/ha, scored visually after 3 weeks vs untreated controls, 100% = plants have died, 0% = like control plants
How it was run: as §1

VERPE [15] = experiment: Pre-emergence herbicidal action against VERPE; format: in vivo, Veronica persica
How it was run: as §1

VERPE [16] = experiment: Post-emergence herbicidal action against VERPE; format: in vivo, Veronica persica; details: 20 g/ha
How it was run: as §2

AMARE [17] = experiment: Post-emergence herbicidal action against AMARE; format: in vivo, Amaranthus retroflexus; details: 20 g/ha, visual assessment about 3 weeks after treatment, 100% = plants have died, 0% = like control plants
How it was run: as §2

VIOTR [18] = experiment: Post-emergence herbicidal action against VIOTR; format: in vivo, Viola tricolor
How it was run: as §2

SETVI [19] = experiment: Post-emergence herbicidal action against SETVI; format: in vivo, Setaria viridis
How it was run: as §2

MATIN [20] = experiment: Post-emergence herbicidal action against MATIN; format: in vivo, Matricaria inodora
How it was run: as §2

[21] = 20 g/ha, scored visually after 3 weeks vs untreated controls, 100% = plants have died, 0% = like control plants
[22] = 80 g/ha, scored visually after 3 weeks vs untreated controls (100% = plants have died, 0% = like control plants)

| SMILES | Pre-emergence action against ECHCG in % (ECHCG [1]; 80 g/ha) [%] | Pre-emergence action against PHBPU in % (PHBPU [2]; dosage 80 g/ha) [%] | Pre-emergence action against ALOMY (herbicidal activity) (ALOMY [3]) [%] | Pre-emergence action against AMARE in % (AMARE [4]; [21]) [%] | Pre-emergence action against AMARE in % (AMARE [4]; [22]) [%] | Post-emergence action against ALOMY in % (ALOMY [5]) [%] | Pre-emergence action against VIOTR in % (VIOTR [6]; dosage 20 g/ha) [%] | Pre-emergence action against VIOTR in % (VIOTR [6]; dosage 80 g/ha) [%] | Pre-emergence action against SETVI in % (SETVI [7]; dosage 80 g/ha) [%] | Pre-emergence action against AVEFA in % (AVEFA [8]) [%] | Post-emergence action against PHBPU in % (PHBPU [9]; dosage 20 g/ha) [%] | Pre-emergence action against MATIN in % (MATIN [10]; dosage 20 g/ha) [%] | Pre-emergence action against MATIN in % (MATIN [10]; dosage 80 g/ha) [%] | Post-emergence action at 20 g/ha against AVEFA in % (AVEFA [11]) [%] | Post-emergence action against ECHCG in % (ECHCG [12]; dosage 20 g/ha) [%] | Post-emergence action against ABUTH in % (ABUTH [13]; dosage 20 g/ha) [%] | Pre-emergence action against ABUTH (herbicidal activity) (ABUTH [14]) [%] | Pre-emergence action against ABUTH (herbicidal activity in percent) (ABUTH [14]) [%] | Pre-emergence action against VERPE in % (VERPE [15]; dosage 80 g/ha) [%] | Post-emergence action against ECHCG in % (ECHCG [12]; dosage 5 g/ha) [%] | also measured |
| --- | --- | --- | --- | --- | --- | --- | --- | --- | --- | --- | --- | --- | --- | --- | --- | --- | --- | --- | --- | --- | --- |
| Cc1c(C(=O)Nc2nnnn2C)ccc(C(F)(F)F)c1C(=O)NCC(F)F [Example 1-30] | 80 | 100 | 80 | 100 | 100 | 80 | 100 | 100 | 100 | 100 | 80 | 100 | 100 | 80 | 80 | 80 | 100 | 100 |  |  | Pre-emergence action against SETVI in % (SETVI [7]; dosage 20 g/ha): 90%; Pre-emergence action against DIGSA in % (DIGSA; dosage 20 g/ha): 100%; Pre-emergence action against DIGSA in % (DIGSA; dosage 80 g/ha): 100%; Post-emergence action against ABUTH in % (ABUTH [13]; dosage 5 g/ha): 80% |
| Cc1c(C(=O)Nc2nnnn2C)ccc(C(F)(F)F)c1C(=O)NC(C)C1CC1 (stereo not shown) [Example 1-31] | 100 | 80 | 90 | 100 | 100 |  | 100 | 100 | 100 | 90 | 80 | 100 | 100 | 90 | 80 | 80 | 100 | 100 | 100 | 80 | Pre-emergence action against ECHCG in % (ECHCG [1]; 20 g/ha): 90%; Pre-emergence action against DIGSA in % (DIGSA; dosage 20 g/ha): 100%; Pre-emergence action against DIGSA in % (DIGSA; dosage 80 g/ha): 100%; Post-emergence action against VERPE in % (VERPE [16]): 80%; Post-emergence action against ABUTH in % (ABUTH [13]; dosage 5 g/ha): 80% |
| CCn1nnnc1NC(=O)c1ccc(C(F)(F)F)c(C(=O)NCC2CC2)c1SC [Example 2-84] | 100 | 90 | 90 | 100 | 100 | 90 | 80 | 100 | 100 | 100 | 80 | 100 | 100 | 100 | 100 | 90 | 100 | 100 | 80 | 100 | Pre-emergence action against ECHCG in % (ECHCG [1]; 20 g/ha): 90%; Pre-emergence action against VERPE in % (VERPE [15]; dosage 20 g/ha): 80%; Post-emergence action at 20 g/ha against AMARE in % (AMARE [17]): 100%; Post-emergence action against VIOTR in % (VIOTR [18]; 5 g/ha): 100%; Post-emergence action against VIOTR in % (VIOTR [18]; 20 g/ha): 100%; Post-emergence action against VERPE in % (VERPE [16]): 80%; Post-emergence action against SETVI in % (SETVI [19]; dosage 5 g/ha): 80%; Post-emergence action against SETVI in % (SETVI [19]; dosage 20 g/ha): 100%; Post-emergence action against MATIN in % (MATIN [20]; dosage 20 g/ha): 80% |
| CCn1nnnc1NC(=O)c1ccc(C(F)(F)F)c(C(=O)NCC(F)F)c1SC [Example 2-86] | 100 | 90 | 90 | 100 | 100 | 80 |  | 100 | 100 | 90 | 90 | 100 | 100 | 80 | 100 | 100 | 100 | 100 | 90 | 100 | Pre-emergence action against ECHCG in % (ECHCG [1]; 20 g/ha): 80%; Pre-emergence action against PHBPU in % (PHBPU [2]; dosage 20 g/ha): 80%; Post-emergence action at 20 g/ha against AMARE in % (AMARE [17]): 100%; Post-emergence action against VIOTR in % (VIOTR [18]; 5 g/ha): 100%; Post-emergence action against VIOTR in % (VIOTR [18]; 20 g/ha): 100%; Post-emergence action against PHBPU in % (PHBPU [9]; dosage 5 g/ha): 80%; Post-emergence action against ABUTH in % (ABUTH [13]; dosage 5 g/ha): 80%; Post-emergence action against SETVI in % (SETVI [19]; dosage 5 g/ha): 100%; Post-emergence action against SETVI in % (SETVI [19]; dosage 20 g/ha): 100%; Post-emergence action against MATIN in % (MATIN [20]; dosage 5 g/ha): 80%; Post-emergence action against MATIN in % (MATIN [20]; dosage 20 g/ha): 90% |
| CCn1nnnc1NC(=O)c1ccc(C(F)F)c(C(=O)NC(C)C2CC2)c1SC (stereo not shown) [Example 2-351] | 100 | 80 | 80 | 100 | 100 | 80 | 100 | 100 | 100 | 80 | 90 | 100 | 100 | 80 | 100 | 80 | 100 | 80 | 100 | 100 | Post-emergence action at 20 g/ha against AMARE in % (AMARE [17]): 100%; Post-emergence action against VIOTR in % (VIOTR [18]; 5 g/ha): 100%; Post-emergence action against VIOTR in % (VIOTR [18]; 20 g/ha): 100%; Post-emergence action against VERPE in % (VERPE [16]): 90%; Post-emergence action against MATIN in % (MATIN [20]; dosage 20 g/ha): 80% |
